From US11590142B2, “Oxazolidinone antibiotic compounds and process of preparation” (Bugworks Research, Inc., priority 2018, dated 2023) come the findings set out here.

What all share (assay type): cell-based
In data set [1] the test system is Enterococcus faecalis ATCC 29212. Briefly: Minimum Inhibitory Concentration (MIC) in LB media. Particulars: ATCC29212, read-out: Minimum Inhibitory Concentration E. faecalis ATCC 29212. Here is the method:
(§1) Biological Activity (Antibacterial activity): The compounds of Formula (I) are of interest due to their potent antibacterial effects. […] The medium sterility is checked by incubating at 37° C. for a period of 48 h. Bacterial cultures that are stored as glycerol stocks at -80° C. are sub cultured on LB agar plates to obtain isolated colonies. A single colony of each strain is cultured in LB broth. The cultures are incubated at 37° C., 200 rpm till they reach an optical density (OD at 600 nm) of 0.8 to 1. […] Test compounds are dissolved in dimethyl sulfoxide (DMSO) to a stock concentration of 4 mg/mi. A twofold dilution series of this DMSO stock is prepared in a 96 well V bottom microtitre plate from rows A to H. A 3 μL volume of these dilutions are transferred to a 96-well flat bottom microtitre assay plate. Controls to monitor the effects of DMSO and media sterility are included. Each well is inoculated with 150 μL of the above diluted culture. The plates are incubated at 37° C. overnight in a humidified incubator. The following morning, the plates are read using a Spectrophotometer at 600 nm wavelength.

Data set [2] has as its system Acinetobacter baumannii ATCC 19606. Briefly: Minimum Inhibitory Concentration (MIC) in LB media. Particulars: ATCC19606. Here is the method:
as §1

In data set [3] the test system is Klebsiella pneumoniae ATCC 13883. The data set can be described thus: Minimum Inhibitory Concentration (MIC) in LB media. The conditions noted are these: ATCC13883, read-out: Minimum Inhibitory Concentration K. pneumoniae ATCC 13883. As for the experimental part:
as §1

Data set [4] concerns Escherichia coli ATCC 25922. The data set can be described thus: Minimum Inhibitory Concentration (MIC) in LB media. Particulars: ATCC25922, read-out: Minimum Inhibitory Concentration E. coli ATCC 25922. As for the experimental part: as §1
Data set [5] has as its system Pseudomonas aeruginosa ATCC 27853. The data set can be described thus: Minimum Inhibitory Concentration (MIC) in LB media. Particulars: ATCC27853, read-out: Minimum Inhibitory Concentration P. aurigenosa ATCC 27853. Here is the method: as §1
Data set [6] deals with Staphylococcus aureus ATCC 29213. Briefly: Minimum Inhibitory Concentration (MIC) in LB media. The conditions noted are these: ATCC29213, read-out: Minimum Inhibitory Concentration S. aureus ATCC 29213. Here is the method:
as §1

Data set [7] has as its target human ether a go-go related gene (hERG) K+ channel (Homo sapiens (Human), UniProt Q12809). Briefly: hERG inhibition assay, QPatch HTX automated electrophysiology. The conditions noted are these: CHO cell line stably expressing hERG, whole-cell patch clamp, maximum test concentration 300 μM. Here is the method: The compounds were tested for inhibition of the human ether a go-go related gene (hERG) K+ channel using QPatch HTX automated electrophysiology. […] Compounds were solubilised to 100 mM in DMSO before dilution in HBPS to 300 μM. […] Electrophysiological recordings were made from a Chinese Hamster Ovary cell line stably expressing the full-length hERG potassium channel. Single cell ionic currents were measured in whole-cell patch clamp configuration at room temperature (21-23° C.) using the QPatch HTX platform (Sophion). Intracellular solution contained (mM): 120 KF, 20 KCl, 10 EGTA, 10 HEPES and was buffered to pH 7.3. […] Cells were clamped at a holding potential of −80 mV. Cells were stepped to +20 mV for 2 s then −40 mV for 3s before returning to the holding potential. This sweep was repeated 10 times at 10 s intervals. hERG currents were measured from the tail step and referenced to the holding current. Compounds were then incubated for 2 minutes prior to a second measurement of ion channel current using an identical pulse train.
For orientation: The hERG channel carries a current that helps repolarise heart muscle cells.

Values after ≈ are worked out from the molar mass of the structure shown. A value given as a limit tells only on which side of the number the result lay.

Chain of human ether a go-go related gene (hERG) K+ channel (Q12809 whole entry): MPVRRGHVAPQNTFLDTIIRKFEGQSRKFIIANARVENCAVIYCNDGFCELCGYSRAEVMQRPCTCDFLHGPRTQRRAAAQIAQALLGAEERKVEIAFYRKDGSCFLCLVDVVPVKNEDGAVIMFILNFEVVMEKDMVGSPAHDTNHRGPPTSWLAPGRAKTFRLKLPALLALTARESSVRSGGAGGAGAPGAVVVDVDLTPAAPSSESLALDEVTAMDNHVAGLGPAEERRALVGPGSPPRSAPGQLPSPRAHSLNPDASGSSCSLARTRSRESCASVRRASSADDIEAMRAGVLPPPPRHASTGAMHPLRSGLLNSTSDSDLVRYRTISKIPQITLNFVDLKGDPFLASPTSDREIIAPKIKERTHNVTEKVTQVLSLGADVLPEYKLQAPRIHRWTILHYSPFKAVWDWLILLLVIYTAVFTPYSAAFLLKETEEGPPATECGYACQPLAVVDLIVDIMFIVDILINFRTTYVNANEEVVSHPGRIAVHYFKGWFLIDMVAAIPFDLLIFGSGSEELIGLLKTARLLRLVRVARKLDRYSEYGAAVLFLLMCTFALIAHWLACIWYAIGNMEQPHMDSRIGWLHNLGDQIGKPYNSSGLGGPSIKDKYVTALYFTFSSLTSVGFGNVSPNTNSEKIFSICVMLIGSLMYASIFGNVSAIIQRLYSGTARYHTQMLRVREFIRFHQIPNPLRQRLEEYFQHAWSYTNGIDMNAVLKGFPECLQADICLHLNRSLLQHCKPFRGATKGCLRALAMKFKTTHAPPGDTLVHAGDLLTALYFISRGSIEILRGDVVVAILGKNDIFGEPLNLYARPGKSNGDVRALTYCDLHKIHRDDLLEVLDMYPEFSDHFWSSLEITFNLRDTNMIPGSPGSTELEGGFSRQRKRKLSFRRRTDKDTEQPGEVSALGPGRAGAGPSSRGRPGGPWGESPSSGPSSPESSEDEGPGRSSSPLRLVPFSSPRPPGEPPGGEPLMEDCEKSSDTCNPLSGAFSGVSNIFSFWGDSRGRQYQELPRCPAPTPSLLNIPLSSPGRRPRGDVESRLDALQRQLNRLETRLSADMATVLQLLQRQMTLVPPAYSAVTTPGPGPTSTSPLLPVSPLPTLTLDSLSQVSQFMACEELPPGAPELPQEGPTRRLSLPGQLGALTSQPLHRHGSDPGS

Turning to `O=C(O)c1cn(C2CC2)c2cc(N3CCNCC3)c(F)cc2c1=O` [Ciprofloxacin, reference compound], the MIC in data set [1] is 0.4 µg/mL (≈ 1.21 µM); in data set [2], 0.4 µg/mL (≈ 1.21 µM); in data set [3], 0.05 µg/mL (≈ 0.151 µM); in data set [4] it was 0.012 µg/mL (≈ 0.0362 µM); in data set [5], 0.1 µg/mL (≈ 0.302 µM); in data set [6] it was 0.4 µg/mL (≈ 1.21 µM).

Turning to `Cn1c(=O)cnc2ccc(OCCNCCC3CN(c4ccc5c(n4)NC(=O)CO5)C(=O)O3)nc21` (stereo not shown) [Compound 1, 6-(5-(2-((2-((4-methyl-3-oxo-3,4-dihydropyrido[2,3-b]pyrazin-6-yl)oxy)ethyl)amino)ethyl)-2-oxooxazolidin-3-yl)-2H-pyrido[3,2-b][1,4]oxazin-3(4H)-one], the MIC in data set [1] was determined as 0.5 µg/mL (≈ 1.04 µM); in data set [2], 0.06 µg/mL (≈ 0.125 µM); in data set [3], 0.25 µg/mL (≈ 0.519 µM); in data set [4], 0.06 µg/mL (≈ 0.125 µM); in data set [5], 1 µg/mL (≈ 2.08 µM); in data set [6] it was 0.13 µg/mL (≈ 0.27 µM).

Take `Cn1c(=O)ccc2ncc(OCCNCCC3CN(c4ccc5c(n4)NC(=O)CO5)C(=O)O3)nc21` (stereo not shown) [Compound 2, 6-(5-(2-((2-((5-methyl-6-oxo-5,6-dihydropyrido[2,3-b]pyrazin-3-yl)oxy)ethyl)amino)ethyl)-2-oxooxazolidin-3-yl)-2H-pyrido[3,2-b][1,4]oxazin-3(4H)-one]: the MIC in data set [1] was determined as 1 µg/mL (≈ 2.08 µM); in data set [2], 0.06 µg/mL (≈ 0.125 µM); in data set [3], 0.25 µg/mL (≈ 0.519 µM); in data set [4], 0.13 µg/mL (≈ 0.27 µM); in data set [5], 0.5 µg/mL (≈ 1.04 µM); in data set [6], 0.06 µg/mL (≈ 0.125 µM).

Broadly, the IC50 is the concentration that gives 50% inhibition. High values mean a need for much substance, low ones inhibition by little substance. `Cn1c(=O)cnc2ccc(OCCNC[C@H]3CN(c4ccc5c(n4)NC(=O)CO5)C(=O)O3)nc21` [Compound 3, (S)-6-(5-(((2-((4-methyl-3-oxo-3,4-dihydropyrido[2,3-b]pyrazin-6-yl)oxy)ethyl)amino)methyl)-2-oxooxazolidin-3-yl)-2H1-pyrido[3,2-b][1,4]oxazin-3(4H)-one]: the MIC turned out to be 0.25 µg/mL (≈ 0.535 µM) in data set [1]; 0.06 µg/mL (≈ 0.128 µM) in data set [2]; 0.25 µg/mL (≈ 0.535 µM) in data set [3]; 0.06 µg/mL (≈ 0.128 µM) in data set [4]; 2 µg/mL (≈ 4.28 µM) in data set [5]; 0.06 µg/mL (≈ 0.128 µM) in data set [6]. For the same compound, in data set [7], the IC50 came out at 40 µM.

As for `Cn1c(=O)cnc2ccc(OCCNC[C@@H]3CN(c4ccc5c(n4)NC(=O)CO5)C(=O)O3)nc21` [Compound 4, (R)-6-(5-(((2-((4-methyl-3-oxo-3,4-dihydropyrido[2,3-b]pyrazin-6-yl)oxy)ethyl)amino)methyl)-2-oxooxazolidin-3-yl)-2H-pyrido[3,2-b][1,4]oxazin-3(4H)-one], the MIC amounted to 0.25 µg/mL (≈ 0.535 µM) in data set [1]; 0.06 µg/mL (≈ 0.128 µM) in data set [2]; 0.25 µg/mL (≈ 0.535 µM) in data set [3]; 0.06 µg/mL (≈ 0.128 µM) in data set [4]; 2 µg/mL (≈ 4.28 µM) in data set [5]; 0.06 µg/mL (≈ 0.128 µM) in data set [6]. In addition, the IC50 in data set [7] came out at 38 µM.

As for `Cn1c(=O)ccc2ncc(OCCNC[C@H]3CN(c4ccc5c(n4)NC(=O)CO5)C(=O)O3)nc21` [Compound 5, (S)-6-(5-(((2-((5-methyl-6-oxo-5,6-dihydropyrido[2,3-b]pyrazin-3-yl)oxy)ethyl)amino)methyl)-2-oxooxazolidin-3-yl)-2H1-pyrido[3,2-b][1,4]oxazin-3(4H)-one], the MIC in data set [1] is 0.5 µg/mL (≈ 1.07 µM); in data set [2], 0.25 µg/mL (≈ 0.535 µM); in data set [3], 0.25 µg/mL (≈ 0.535 µM); in data set [4], 0.25 µg/mL (≈ 0.535 µM); in data set [5] it was 4 µg/mL (≈ 8.56 µM); in data set [6] it was 0.25 µg/mL (≈ 0.535 µM). This compound had an IC50 in data set [7] of 82 µM.

As to `Cn1c(=O)ccc2ncc(OCCNC[C@@H]3CN(c4ccc5c(n4)NC(=O)CO5)C(=O)O3)nc21` [Compound 6, (R)-6-(5-(((2-((5-methyl-6-oxo-5,6-dihydropyrido[2,3-b]pyrazin-3-yl)oxy)ethyl)amino)methyl)-2-oxooxazolidin-3-yl)-2H-pyrido[3,2-b][1,4]oxazin-3(4H)-one], the MIC in data set [1] came out at 0.25 µg/mL (≈ 0.535 µM); in data set [2] it was 0.13 µg/mL (≈ 0.278 µM); in data set [3] it was 0.25 µg/mL (≈ 0.535 µM); in data set [4] it was 0.13 µg/mL (≈ 0.278 µM); in data set [5] it was 2 µg/mL (≈ 4.28 µM); in data set [6], 0.13 µg/mL (≈ 0.278 µM). Moreover, in data set [7], half-maximal inhibition (IC50) required 60 µM.

On to `Cn1c(=O)cnc2ccc(OCCNC[C@@H]3CN(c4cnc5c(n4)NC(=O)CO5)C(=O)O3)nc21` [Compound 8, (R)-6-(5-(((2-((4-methyl-3-oxo-3,4-dihydropyrido[2,3-b]pyrazin-6-yl)oxy)ethyl)amino)methyl)-2-oxooxazolidin-3-yl)-2H1-pyrazino[2,3-b][1,4]oxazin-3(4H)-one], for which the MIC in data set [1] was determined as 0.5 µg/mL (≈ 1.07 µM); in data set [2], 0.5 µg/mL (≈ 1.07 µM); in data set [3], 0.25 µg/mL (≈ 0.534 µM); in data set [4], 0.06 µg/mL (≈ 0.128 µM); in data set [5], 1 µg/mL (≈ 2.13 µM); in data set [6], 0.125 µg/mL (≈ 0.267 µM). Further, the IC50 in data set [7] was > 300 µM.

As to `Cn1c(=O)cnc2cc(F)c(OCCNC[C@H]3CN(c4cnc5c(n4)NC(=O)CO5)C(=O)O3)nc21` [Compound 10, (S)-6-(5-(((2-((7-fluoro-4-methyl-3-oxo-3,4-dihydropyrido[2,3-b]pyrazin-6-yl)oxy)ethyl)amino)methyl)-2-oxooxazolidin-3-yl)-2H-pyrazino[2,3-b][1,4]oxazin-3(4H)-one], the MIC in data set [1] was 0.25 µg/mL (≈ 0.514 µM); in data set [2], 0.5 µg/mL (≈ 1.03 µM); in data set [3], 0.25 µg/mL (≈ 0.514 µM); in data set [4], 0.06 µg/mL (≈ 0.123 µM); in data set [5] it was 1 µg/mL (≈ 2.06 µM); in data set [6] it was 0.06 µg/mL (≈ 0.123 µM). Also, the IC50 in data set [7] was > 300 µM.

For `CCn1c(=O)cnc2ccc(OCCNC[C@H]3CN(c4cnc5c(n4)NC(=O)CO5)C(=O)O3)nc21` [Compound 11, (S)-6-(5-(((2-((4-ethyl-3-oxo-3,4-dihydropyrido[2,3-b]pyrazin-6-yl)oxy)ethyl)amino)methyl)-2-oxooxazolidin-3-yl)-2H-pyrazino[2,3-b][1,4]oxazin-3(4H)-one], the MIC in data set [1] was 1 µg/mL (≈ 2.07 µM); in data set [2] it was 0.5 µg/mL (≈ 1.04 µM); in data set [3] it was 0.5 µg/mL (≈ 1.04 µM); in data set [4], 0.125 µg/mL (≈ 0.259 µM); in data set [5] it was 2 µg/mL (≈ 4.15 µM); in data set [6], 0.03 µg/mL (≈ 0.0622 µM).

As for `Cn1c(=O)cnc2cc(Cl)c(OCCNC[C@H]3CN(c4cnc5c(n4)NC(=O)CO5)C(=O)O3)nc21` [Compound 12, (S)-6-(5-(((2-((7-Chloro-4-methyl-3-oxo-3,4-dihydropyrido[2,3-b]pyrazin-6-yl)oxy)ethyl)amino)methyl)-2-oxooxazolidin-3-yl)-2H-pyrazino[2,3-b][1,4]oxazin-3(4H)-one], the MIC worked out at 0.25 µg/mL (≈ 0.497 µM) in data set [1]; 0.5 µg/mL (≈ 0.994 µM) in data set [2]; 0.25 µg/mL (≈ 0.497 µM) in data set [3]; 0.125 µg/mL (≈ 0.249 µM) in data set [4]; 4 µg/mL (≈ 7.95 µM) in data set [5]; 0.125 µg/mL (≈ 0.249 µM) in data set [6]. In data set [7], this compound came in with an IC50 of 98 µM.

For the compound `Cn1c(=O)cnc2ccc(OCCNC[C@H]3CN(c4cnc5c(n4)NC(=O)CS5)C(=O)O3)nc21` [Compound 13, (S)-5-(((2-((4-Methyl-3-oxo-3,4-dihydropyrido[2,3-b]pyrazin-6-yl)oxy)ethyl)amino)methyl)-3-(3-oxo-3,4-dihydro-2H-pyrazino[2,3-b][1,4]thiazin-6-yl)oxazolidin-2-one], the MIC in data set [1] is 0.1 µg/mL (≈ 0.206 µM); in data set [2], 0.03 µg/mL (≈ 0.0619 µM); in data set [3], 0.03 µg/mL (≈ 0.0619 µM); in data set [4] it was 0.03 µg/mL (≈ 0.0619 µM); in data set [5], 0.5 µg/mL (≈ 1.03 µM); in data set [6], ≤ 0.03 µg/mL.
